From PubChem BioAssay (NCI)
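Assay format: 96-well plates, 48-hour exposure. TGI is the concentration that stops growth completely.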

Key:
Assay in all cases: inhibition of tumour cell growth, NCI panel, 48 h
[1] = test system: 786-0 renal
[2] = test system: A498 renal
[3] = test system: A549 NSCLC
[4] = test system: ACHN renal
[5] = test system: BT-549 breast
[6] = test system: CAKI-1 renal
[7] = test system: CCRF-CEM leukemia
[8] = test system: COLO 205 colon
[9] = test system: DU-145 prostate
[10] = test system: EKVX NSCLC
[11] = test system: HCC-2998 colon
[12] = test system: HCT-116 colon
[13] = test system: HCT-15 colon
[14] = test system: HL-60(TB) leukemia
[15] = test system: HOP-62 NSCLC
[16] = test system: HOP-92 NSCLC
[17] = test system: HT29 colon
[18] = test system: IGROV1 ovarian
[19] = test system: K-562 leukemia
[20] = test system: KM12 colon
[21] = test system: LOX IMVI melanoma
[22] = test system: M14 melanoma
[23] = test system: MALME-3M melanoma
[24] = test system: MCF7 breast
[25] = test system: MDA-MB-231 breast
[26] = test system: MDA-MB-435
[27] = test system: MDA-N
[28] = test system: MOLT-4 leukemia
[29] = test system: NCI-H226 lung
[30] = test system: NCI-H23 lung
[31] = test system: NCI-H460 lung
[32] = test system: NCI-H522 lung
[33] = test system: NCI/ADR-RES ovarian
[34] = test system: OVCAR-3 ovarian
[35] = test system: OVCAR-4 ovarian
[36] = test system: OVCAR-5 ovarian
[37] = test system: OVCAR-8 ovarian
[38] = test system: PC-3 prostate
[39] = test system: RXF 393 renal
[40] = test system: SF-268 CNS
[41] = test system: SF-295 CNS
[42] = test system: SF-539 CNS
[43] = test system: SK-MEL-28 melanoma
[44] = test system: SK-OV-3 ovarian
[45] = test system: SN12C renal
[46] = test system: SNB-19 CNS
[47] = test system: SNB-75 CNS
[48] = test system: SR leukemia
[49] = test system: SW-620 colon
[50] = test system: T-47D breast
[51] = test system: TK-10 renal
[52] = test system: U251 CNS
[53] = test system: UACC-257 melanoma
[54] = test system: UACC-62 melanoma
[55] = test system: UO-31 renal
[56] = test system: HS 578T breast
[57] = test system: RPMI-8226 leukemia
[58] = test system: SK-MEL-2 melanoma
[59] = test system: SK-MEL-5 melanoma

Measured: TGI

COC(=O)c1c([N+](=O)[O-])ncn1[C@H]1OC[C@@H](OC(C)=O)[C@@H](OC(C)=O)[C@@H]1OC(C)=O
> 100 µM: [1] | [2] | [3] | [4] | [5] | [6] | [7] | [8] | [9] | [10] | [11] | [12] | [13] | [14] | [15] | [16] | [17] | [18] | [19] | [20] | [21] | [22] | [23] | [24] | [25] | [26] | [27] | [28] | [29] | [30] | [31] | [32] | [33] | [34] | [35] | [36] | [37] | [38] | [39] | [40] | [41] | [42] | [43] | [44] | [45] | [46] | [47] | [48] | [49] | [50] | [51] | [52] | [53] | [54] | [55]

O=C(O)c1ccccc1C(=O)NCC1S(=O)(=O)OCCOS1(=O)=O
> 100 µM: [1] | [2] | [3] | [4] | [6] | [7] | [8] | [9] | [10] | [11] | [12] | [13] | [14] | [15] | [16] | [56] | [17] | [18] | [19] | [21] | [22] | [23] | [24] | [25] | [26] | [27] | [28] | [29] | [30] | [31] | [32] | [33] | [34] | [35] | [36] | [37] | [38] | [57] | [39] | [40] | [41] | [42] | [58] | [43] | [59] | [44] | [45] | [46] | [47] | [48] | [49] | [50] | [51] | [52] | [53] | [54] | [55]
